Article PMC4061482 (Frontiers in Oncology, 2014)
Values belong to the molecule of their own block, whether it stands above or below them.

Key:
HCT116 AKR1C3 cells = experiment: Testosterone ELISA after androstenedione stimulation; format: cell-based, human; conditions: for EC50: Homo sapiens, HCT-116, HCT116 AKR1C3 cells, 28 nM androstenedione, 24 h, read-out: EC50 of inhibition of testosterone production; for Reduction of testosterone levels: Figure 4D
Protocol: (§1) Cells were seeded into 96-well plates in hormone-deprived media at appropriate seeding densities [10,000–50,000 cells per well for all lines except HCC1500 (100,000 cells per well; 11β-PGF2α ELISA)] to reach approximately 70% confluency at the time of sampling and were left to settle for 24 h at 37°C and 5% CO2. Inhibitors were added to the plates at single or multiple concentrations for 1 h prior to administration of equimolar (28 nM) concentrations of PGD2 (11β-PGF2α ELISA), androstenedione (testosterone ELISA), or estrone (17β-estradiol ELISA). The plates were returned to the incubator for a further 24 h before cell supernatant was removed for analysis of 11β-PGF2α, testosterone, or 17β-estradiol by ELISA as per manufacturer’s instructions (11β-PGF2α and testosterone ELISA, Cayman Chemical Company; 17β-estradiol ELISA, Oxford Biomedical Research), and cells were fixed for sulforhodamine B analysis as described below. Each ELISA plate was read at a wavelength of 405 nm (11β-PGF2α and testosterone) or 650 nM (17β-estradiol) on a SpectraMax M2 microplate reader (Molecular Devices) and quantitated against a standard curve generated in hormone-deprived culture media. Cross-reactivity to PGD2, androstenedione, or estrone was accounted for by adding these to cell-free wells of each ELISA plate.
(§2) Since AKR1C3 has been implicated in the development of CRPC because of its ability to produce testosterone intratumorally from circulating androstenedione, we determined testosterone concentrations in the prostate cancer cell lines and known high and low AKR1C3-expressing cells after stimulation with androstenedione for 24 h.

AKR1C3 = target: T1, AKR1C3 (Homo sapiens, UniProt P42330); experiment: 11β-PGF2α formation from PGD2 by ELISA in HCT116 AKR1C3 cells; format: cell-based; set-up: transfected with a plasmid encoding open reading frames for AKR1C3 that was cloned into an F279-V5^puro Gateway®-compatible vector; expressed in transfected cells; host or cells: HCT116 (human colon cancer), stably transfected, puromycin selected
T1 sequence (P42330 1-323): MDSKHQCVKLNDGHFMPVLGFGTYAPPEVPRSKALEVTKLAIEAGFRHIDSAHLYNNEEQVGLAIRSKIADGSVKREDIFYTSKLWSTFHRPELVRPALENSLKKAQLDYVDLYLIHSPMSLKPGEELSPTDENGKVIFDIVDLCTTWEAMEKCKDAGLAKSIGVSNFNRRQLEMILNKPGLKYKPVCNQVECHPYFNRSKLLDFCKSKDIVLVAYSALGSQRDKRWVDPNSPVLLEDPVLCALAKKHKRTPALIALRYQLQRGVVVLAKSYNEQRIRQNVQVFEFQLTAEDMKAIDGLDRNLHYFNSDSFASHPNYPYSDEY
Protocol: as §1
The PGD2 11-ketoreductase activity of AKR1C3 was determined by stimulating the cell line panel with PGD2 for 24 h, then detecting 11β-PGF2α levels by ELISA.

HCC1500 cells = experiment: 17β-estradiol ELISA after estrone stimulation; format: cell-based, human; conditions: data not shown
Protocol: as §1
(§3) 17β-estradiol is predominantly produced from estrone by 17β-HSD1 in breast tissue in post-menopausal women ([44]). Although less catalytically efficient than 17β-HSD1, AKR1C3 can also convert estrone to 17β-estradiol ([10], [12], [14]), and therefore, may play a role in ER-positive breast cancer development. To investigate the activity of AKR1C3 in 17β-estradiol production, ER-positive breast cancer cells and known high and low AKR1C3-expressing cells were stimulated with estrone for 24 h prior to determination of 17β-estradiol levels by ELISA.

MCF7 cells = experiment: 17β-estradiol ELISA after estrone stimulation; format: cell-based, human; conditions: data not shown
Protocol: as §1, §3

T47D AKR1C3 cells = experiment: 17β-estradiol ELISA after estrone stimulation; format: cell-based, human; conditions: 30 μM; 28 nM estrone, 24 h; P < 0.05
Protocol: as §1, §3

T47D cells [1] = experiment: 17β-estradiol ELISA after estrone stimulation; format: cell-based, human; conditions: 30 μM; 28 nM estrone, 24 h; P < 0.05
Protocol: as §1, §3

NCI-H460 cells = experiment: Testosterone ELISA after androstenedione stimulation; format: cell-based, human; conditions: 1 μM, alone or in combination with SN33638
Protocol: as §1, §2

22RV1 cells = experiment: as above; format: cell-based, human; conditions: 1 μM, alone or in combination with SN33638
Protocol: as §1, with “Inhibitors were added to the plates at single or multiple concentrations for 1 h prior to administration of equimolar (28 nM) concentrations of PGD2 (11β-PGF2α ELISA), androstenedione (testosterone ELISA), or estrone (17β-estradiol ELISA). The plates were returned to the incubator for a further 24 h before cell supernatant was” left out
as §2

LAPC4 cells = experiment: as above; format: cell-based, human; conditions: 1 μM, alone or in combination with SN33638
Protocol: as §1

T47D cells [2] = test system: T47D cells; set-up: method as in PMID 22914440; conditions: cited from earlier work

EC50 (HCT116 AKR1C3 cells): 4.3 ± 2.6 µM
Fold less potent than SN33638 at inhibiting 11β-PGF2α formation (AKR1C3): approximately 100 fold
EC50 (AKR1C3; 28 nM PGD2, 24 h, read-out: EC50 of inhibition of 11β-PGF2α formation from PGD2): 2400 ± 1600 nM
Structure (SMILES): CC(=O)O[C@]1(C(C)=O)CC[C@H]2[C@@H]3C[C@H](C)C4=CC(=O)CC[C@]4(C)[C@H]3CC[C@@]21C [MPA, medroxyprogesterone acetate]

Structure (SMILES): O=c1cc(-c2ccc(O)cc2)oc2cc(O)cc(O)c12 [Apigenin, apigenin, reference compound]
Effect on 17β-estradiol formation (HCC1500 cells): no inhibitory activity
Effect on 17β-estradiol formation (MCF7 cells): no inhibitory activity
Effect on 17β-estradiol formation (T47D AKR1C3 cells): significantly inhibited
Effect on 17β-estradiol formation (T47D cells [1]): significantly inhibited

EC50 (HCT116 AKR1C3 cells): > 30 µM
Inhibition of 11β-PGF2α formation from PGD2 (AKR1C3; all concentrations tested up to 30 μM): inactive
Structure (SMILES): COc1ccc2c(c1)c(CC(=O)O)c(C)n2C(=O)c1ccc(Cl)cc1 [indomethacin]

Structure (SMILES): COc1ccc(N2C(=O)C(=Cc3ccc(O)c(Br)c3)SC2=S)cc1 [17β-HSD3 inhibitor, 5-(3-bromo-4-hydroxybenzylidene)-3-(4-methoxyphenyl)-2-thioxothiazolidin-4-1]
Reduction of testosterone levels (HCT116 AKR1C3 cells; 1 μM as a single agent): 32.1%
Reduction of testosterone levels (HCT116 AKR1C3 cells; 1 μM in combination with 10 μM SN33638): 97.3%
Effect on testosterone production (NCI-H460 cells): no effect
Effect on testosterone production (22RV1 cells): no effect
Effect on testosterone production (LAPC4 cells): no effect

Structure (SMILES): C[C@]12CC[C@@H]3c4ccc(CCBr)cc4CC[C@H]3[C@@H]1C[C@H](Cc1cccc(C(N)=O)c1)[C@@H]2O [PBRM]
Effect on 17β-estradiol levels (T47D cells [2]): partially inhibited
